Series [1] has as its target T1, mineralocorticoid receptor (MR) (Rattus norvegicus, UniProt P22199).
T1 sequence (P22199 1-981): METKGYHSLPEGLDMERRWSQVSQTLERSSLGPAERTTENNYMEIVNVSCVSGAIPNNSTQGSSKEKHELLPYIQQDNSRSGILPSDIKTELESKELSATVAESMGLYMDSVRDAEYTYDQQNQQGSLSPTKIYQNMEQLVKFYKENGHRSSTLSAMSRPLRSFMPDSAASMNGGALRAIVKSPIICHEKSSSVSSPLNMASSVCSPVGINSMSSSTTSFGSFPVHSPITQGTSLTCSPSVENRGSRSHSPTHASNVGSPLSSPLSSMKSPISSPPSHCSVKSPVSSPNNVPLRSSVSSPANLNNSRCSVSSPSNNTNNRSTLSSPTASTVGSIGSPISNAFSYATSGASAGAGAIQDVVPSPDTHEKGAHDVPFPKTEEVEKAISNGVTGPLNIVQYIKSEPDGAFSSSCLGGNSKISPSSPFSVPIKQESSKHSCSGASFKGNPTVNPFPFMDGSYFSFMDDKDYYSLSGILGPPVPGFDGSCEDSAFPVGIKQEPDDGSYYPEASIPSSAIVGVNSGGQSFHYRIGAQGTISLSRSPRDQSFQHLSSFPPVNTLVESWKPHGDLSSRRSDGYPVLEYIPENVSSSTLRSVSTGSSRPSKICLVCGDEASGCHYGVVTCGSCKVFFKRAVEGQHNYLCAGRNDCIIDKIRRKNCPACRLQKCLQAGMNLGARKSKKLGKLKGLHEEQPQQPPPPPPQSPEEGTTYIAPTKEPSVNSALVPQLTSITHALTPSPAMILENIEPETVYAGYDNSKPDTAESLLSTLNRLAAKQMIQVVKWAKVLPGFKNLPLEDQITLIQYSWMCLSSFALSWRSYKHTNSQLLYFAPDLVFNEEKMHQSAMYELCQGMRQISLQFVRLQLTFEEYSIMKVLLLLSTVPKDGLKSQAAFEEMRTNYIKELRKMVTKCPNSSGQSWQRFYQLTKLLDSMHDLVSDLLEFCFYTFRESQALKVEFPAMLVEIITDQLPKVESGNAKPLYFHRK
Briefly: In vitro binding to mineralocorticoid receptor (MR), displacement of tritiated aldosterone. The note with it: read-out: Mineralocorticoid receptor Antagonist activity IC50. An excerpt: In vitro binding to the mineralocorticoid receptor (MR) was essentially carried out as reported in the literature (C. E. Gomez-Sanchez and E. P. Gomez-Sanchez, Endocrinology 113 (1983) 1004-1009, Z. S. Krozowski and J. W. Funder, Proc. Natl. Acad. Sci. USA 80 (1983) 6056-; J. H. M. H. Reul and E. R. de Kloet, Endocrinology 117 (1985) 2505-2511; K. E. Sheppard and J. W. Funder, J. Steroid Biochem. 28 (1987) 737-742).
Male Wistar rats Were adrenalectomised and perfused with cold saline after 3 days of survival. Kidneys and hippocampi, respectively, were rapidly dissected and homogenized. A cylosolic fraction was prepared by centrifugation.
Unlabeled RU 28362 (10 nM), a specific GR binder, was added for saturating glucocorticoid receptors. Compounds to be tested, dissolved in DMF and diluted with water to obtain the required concentration, were added in an increasing concentration range (1.0-1000 nM) and allowed to incubate for 3 h. Incubations were terminated by adding dextran-coated charcoal suspension, followed by centrifugation. The supernatant was assayed with a scintillation counter for unbound labelled ligand.

Usually pIC50 stands for the IC50 on a negative log10 scale, so that one unit is a factor of ten. What is called melting point is the temperature, or range, at which the solid turns liquid.

pIC50: −log10 of the molar value.

On to `CC[C@H]1CC[C@H]2[C@@H]3CCC4=CC(=O)C=C[C@]4(C)[C@H]3[C@@H](O)C[C@]12C` [synthetic example 14, (11β)-11-hydroxypregna-1,4-dien-3-one], for which the pIC50 in series [1] is 9.92. Turning to `CC(=O)S[C@@H]1CC2=CC(=O)CC[C@]2(C)[C@H]2CC[C@@]3(C)[C@@H](CC[C@@]34CCC(=O)O4)[C@H]12` [Spironolactone, reference compound], in series [1], the pIC50 was 8.22. Regarding `C=C(C)[C@H]1CC[C@H]2[C@@H]3CCC4=CC(=O)CC[C@]4(C)[C@H]3[C@@H](O)C[C@]12C` [synthetic example 1, (11β)-11-hydroxy-20-methylpregna-4,20-dien-3-one], the pIC50 in series [1] is 9.36. As for `C=C(C)[C@H]1CC[C@H]2[C@@H]3C=CC4=CC(=O)CC[C@]4(C)[C@H]3[C@@H](O)C[C@]12C`, the melting point was 153 to 155 °C. Take `C[C@]12C[C@H](O)[C@H]3[C@@H](CCC4=CC(=O)CC[C@@]43C)[C@@H]1CC[C@@H]2C(=O)CO` [Corticosterone, reference compound]: the pIC50 in series [1] was 8.30.

The values above are taken from US20100120736A1, “Mineralocorticoid Receptor Antagonists” (N.V. ORGANON, priority 2007, published 2010).
